What was measured:
HCT-116 = test: Cytotoxicity against human HCT-116 cells incubated for 72 hrs by MTT assay; type: functional, cell-based; details: HCT-116, 72 h
L1210 = test: Cytotoxicity against mouse L1210 cells incubated for 72 hrs by WST-8 method; type: functional, cell-based; details: L1210, 72 h

SMILES	IC50 (HCT-116) [µM]	IC50 (L1210) [µM]
CO[C@@H](CC[C@H](C)[C@@H](OC(=O)C[C@@H](O)[C@@H](C)O)[C@@H](C)C(=O)O)c1cccc(O)c1	> 100	> 100
CO[C@@H](CC[C@H](C)[C@H]1O[C@@]2(C=C[C@@H]1C)[C@H](C(=O)O[C@H]1COC(=O)C1)C(=O)[C@H](C)CC2(C)C)c1cccc(O)c1	–	48
CO[C@@H](CC[C@H](C)/C=C(\C)C=O)c1cccc(O)c1	> 100	93
